{"source": "ChEMBL document CHEMBL1201862", "about": "“PubChem BioAssay data set” (2004)", "key": {"[1]": {"target": "Photoreceptor-specific nuclear receptor (Homo sapiens, UniProt Q9Y5X4)", "assay_type": "functional, cell-based"}, "Cytochrome P450 3A4": {"target": "Cytochrome P450 3A4 (Homo sapiens, UniProt P08684)", "sequence (P08684 whole entry)": "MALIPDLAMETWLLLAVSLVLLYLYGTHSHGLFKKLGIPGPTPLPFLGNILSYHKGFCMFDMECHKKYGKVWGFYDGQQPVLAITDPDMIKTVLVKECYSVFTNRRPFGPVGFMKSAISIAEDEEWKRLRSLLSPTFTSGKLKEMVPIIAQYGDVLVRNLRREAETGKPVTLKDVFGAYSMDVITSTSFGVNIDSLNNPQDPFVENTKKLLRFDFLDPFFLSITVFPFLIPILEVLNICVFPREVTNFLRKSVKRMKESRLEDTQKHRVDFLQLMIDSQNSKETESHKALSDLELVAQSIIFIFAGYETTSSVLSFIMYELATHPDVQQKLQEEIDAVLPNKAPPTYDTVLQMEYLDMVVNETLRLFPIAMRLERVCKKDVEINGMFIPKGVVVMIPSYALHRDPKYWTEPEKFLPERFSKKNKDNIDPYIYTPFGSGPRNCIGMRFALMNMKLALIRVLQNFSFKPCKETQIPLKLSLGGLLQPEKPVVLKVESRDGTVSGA"}, "[2]": {"target": "T1, Low molecular weight phosphotyrosine protein phosphatase (Homo sapiens, UniProt P24666)", "T1 sequence (P24666 whole entry)": "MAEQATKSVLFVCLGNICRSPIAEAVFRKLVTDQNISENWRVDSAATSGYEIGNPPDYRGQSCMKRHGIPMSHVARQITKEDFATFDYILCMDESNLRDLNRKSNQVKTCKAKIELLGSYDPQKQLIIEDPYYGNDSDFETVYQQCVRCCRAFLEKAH", "assay_type": "functional", "settings": "read-out: IC50_Mean"}, "[3]": {"target": "T1, Low molecular weight phosphotyrosine protein phosphatase", "assay_type": "functional", "settings": "read-out: IC50_Mean", "remark": "listed apart in the source"}, "[4]": {"target": "T2, Probable nicotinate-nucleotide adenylyltransferase (Staphylococcus aureus (strain N315), UniProt P65502)", "T2 sequence (P65502 whole entry)": "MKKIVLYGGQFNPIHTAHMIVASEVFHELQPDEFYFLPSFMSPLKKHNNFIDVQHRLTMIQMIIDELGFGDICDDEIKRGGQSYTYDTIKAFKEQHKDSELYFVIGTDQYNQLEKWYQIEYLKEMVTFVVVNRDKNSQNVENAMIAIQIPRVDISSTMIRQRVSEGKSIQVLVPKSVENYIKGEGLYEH", "assay_type": "functional, Staphylococcus aureus subsp. aureus N315"}, "[5]": {"target": "T3, Carboxy-terminal domain RNA polymerase II polypeptide A small phosphatase 1 (Homo sapiens, UniProt Q9GZU7)", "T3 sequence (Q9GZU7 whole entry)": "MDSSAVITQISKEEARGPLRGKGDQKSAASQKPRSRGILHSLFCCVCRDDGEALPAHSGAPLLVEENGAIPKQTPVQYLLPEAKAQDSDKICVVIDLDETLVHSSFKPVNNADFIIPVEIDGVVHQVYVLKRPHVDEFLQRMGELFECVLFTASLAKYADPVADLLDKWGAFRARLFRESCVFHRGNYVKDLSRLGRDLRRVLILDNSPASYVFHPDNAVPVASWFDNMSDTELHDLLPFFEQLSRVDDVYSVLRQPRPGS", "assay": "inhibitors of CTDSP1, concentration-response testing, biochemical assay, absorbance-based, actives from ultra-high-throughput screening (AID 540297)", "assay_type": "functional"}, "Cytochrome P450 2C19": {"target": "Cytochrome P450 2C19 (Homo sapiens, UniProt P33261)", "sequence (P33261 whole entry)": "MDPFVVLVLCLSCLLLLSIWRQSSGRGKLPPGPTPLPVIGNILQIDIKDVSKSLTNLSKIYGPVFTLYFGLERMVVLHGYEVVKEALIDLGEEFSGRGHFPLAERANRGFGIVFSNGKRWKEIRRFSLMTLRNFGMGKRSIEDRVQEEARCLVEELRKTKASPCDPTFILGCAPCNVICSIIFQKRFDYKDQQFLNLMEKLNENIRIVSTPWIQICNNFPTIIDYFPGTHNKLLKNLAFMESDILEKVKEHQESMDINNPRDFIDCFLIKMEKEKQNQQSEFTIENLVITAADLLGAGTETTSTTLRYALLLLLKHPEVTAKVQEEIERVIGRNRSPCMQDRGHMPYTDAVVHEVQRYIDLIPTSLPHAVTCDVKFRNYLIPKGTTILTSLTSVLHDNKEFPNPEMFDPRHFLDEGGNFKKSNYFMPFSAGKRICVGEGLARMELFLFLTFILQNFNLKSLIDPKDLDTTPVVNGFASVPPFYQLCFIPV", "assay": "Cytochrome panel assay with activity outcomes. Panel member name: p450-cyp2c19 Compounds with AC50 equal or less than 10 uM are considered active", "assay_type": "functional", "settings": "read-out: AC50"}, "[6]": {"target": "T2, Probable nicotinate-nucleotide adenylyltransferase", "assay_type": "functional, Staphylococcus aureus subsp. aureus N315", "settings": "read-out: IC50_Mean"}, "[7]": {"target": "Arf-GAP with SH3 domain, ANK repeat and PH domain-containing protein 1 (Homo sapiens, UniProt Q9ULH1)", "sequence (Q9ULH1 whole entry, the tested form may be a part)": "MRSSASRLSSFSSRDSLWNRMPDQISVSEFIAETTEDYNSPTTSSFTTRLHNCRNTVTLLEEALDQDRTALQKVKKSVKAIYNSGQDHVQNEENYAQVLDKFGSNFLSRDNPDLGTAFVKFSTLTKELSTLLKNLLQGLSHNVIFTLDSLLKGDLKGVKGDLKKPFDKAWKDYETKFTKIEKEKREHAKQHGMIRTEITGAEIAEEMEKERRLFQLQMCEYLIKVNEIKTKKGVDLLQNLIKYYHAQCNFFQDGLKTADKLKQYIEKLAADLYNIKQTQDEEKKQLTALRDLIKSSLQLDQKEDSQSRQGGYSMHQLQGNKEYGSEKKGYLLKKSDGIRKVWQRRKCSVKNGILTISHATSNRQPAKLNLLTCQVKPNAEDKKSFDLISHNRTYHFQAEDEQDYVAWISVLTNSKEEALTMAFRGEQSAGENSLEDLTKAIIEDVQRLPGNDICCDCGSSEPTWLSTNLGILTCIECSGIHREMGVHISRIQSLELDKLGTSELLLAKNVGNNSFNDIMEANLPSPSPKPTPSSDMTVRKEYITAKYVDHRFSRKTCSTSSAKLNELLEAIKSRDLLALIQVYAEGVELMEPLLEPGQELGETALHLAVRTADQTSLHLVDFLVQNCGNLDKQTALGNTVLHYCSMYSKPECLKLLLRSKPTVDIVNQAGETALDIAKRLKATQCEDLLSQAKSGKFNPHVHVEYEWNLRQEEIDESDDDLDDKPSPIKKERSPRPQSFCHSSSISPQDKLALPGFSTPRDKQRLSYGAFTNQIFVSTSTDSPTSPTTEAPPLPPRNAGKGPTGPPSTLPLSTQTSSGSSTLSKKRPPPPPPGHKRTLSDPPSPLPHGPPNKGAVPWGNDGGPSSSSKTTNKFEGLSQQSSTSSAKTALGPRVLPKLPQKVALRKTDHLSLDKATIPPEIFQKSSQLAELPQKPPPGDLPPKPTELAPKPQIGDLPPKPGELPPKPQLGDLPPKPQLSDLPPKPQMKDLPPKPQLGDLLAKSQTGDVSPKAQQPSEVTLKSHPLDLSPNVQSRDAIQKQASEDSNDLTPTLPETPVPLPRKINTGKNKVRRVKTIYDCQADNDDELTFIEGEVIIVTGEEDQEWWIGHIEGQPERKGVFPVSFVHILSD", "assay_type": "functional"}, "[8]": {"target": "T4, Adenosylmethionine-8-amino-7-oxononanoate aminotransferase (Mycobacterium tuberculosis, UniProt P9WQ81)", "T4 sequence (P9WQ81 whole entry)": "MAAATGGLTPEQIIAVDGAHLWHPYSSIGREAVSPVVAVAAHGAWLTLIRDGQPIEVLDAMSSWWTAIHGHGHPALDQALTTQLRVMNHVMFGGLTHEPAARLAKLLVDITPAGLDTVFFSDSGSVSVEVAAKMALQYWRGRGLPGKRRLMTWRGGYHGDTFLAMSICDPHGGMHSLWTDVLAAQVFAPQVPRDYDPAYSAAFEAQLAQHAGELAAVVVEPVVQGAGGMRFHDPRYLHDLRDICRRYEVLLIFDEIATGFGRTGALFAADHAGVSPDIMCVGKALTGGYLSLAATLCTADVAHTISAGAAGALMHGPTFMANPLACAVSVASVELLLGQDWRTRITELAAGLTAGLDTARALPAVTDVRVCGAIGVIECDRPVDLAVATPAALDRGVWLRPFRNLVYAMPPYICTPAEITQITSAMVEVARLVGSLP", "assay": "Mycobacterium tuberculosis BioA enzyme inhibitor Measured in Biochemical System Using Plate Reader - 2163-02_Inhibitor_Dose_CherryPick_Activity.", "assay_type": "functional, Mycobacterium tuberculosis UT205"}, "[9]": {"assay": "cytotoxicity in HEK293 cells, dose response, cytotoxicity control, cell-based, plate reader, cherry-pick (AID 651899)", "assay_type": "functional"}, "[10]": {"target": "T5, Corticotropin-releasing factor receptor 2/Corticotropin-releasing factor-binding protein (Homo sapiens, UniProt P24387+Q13324)", "T5 sequence (Q13324 whole entry)": "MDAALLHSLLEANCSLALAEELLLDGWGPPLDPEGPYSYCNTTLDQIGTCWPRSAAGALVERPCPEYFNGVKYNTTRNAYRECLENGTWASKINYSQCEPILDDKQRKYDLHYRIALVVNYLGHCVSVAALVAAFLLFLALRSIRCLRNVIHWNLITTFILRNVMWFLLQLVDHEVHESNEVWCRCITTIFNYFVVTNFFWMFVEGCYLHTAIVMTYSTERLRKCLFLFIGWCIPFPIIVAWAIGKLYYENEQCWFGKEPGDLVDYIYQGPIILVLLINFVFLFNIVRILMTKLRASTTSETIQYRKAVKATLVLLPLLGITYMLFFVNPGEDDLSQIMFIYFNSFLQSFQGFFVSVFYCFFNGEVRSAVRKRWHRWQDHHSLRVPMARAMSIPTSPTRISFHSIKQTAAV", "T5 sequence (P24387 whole entry)": "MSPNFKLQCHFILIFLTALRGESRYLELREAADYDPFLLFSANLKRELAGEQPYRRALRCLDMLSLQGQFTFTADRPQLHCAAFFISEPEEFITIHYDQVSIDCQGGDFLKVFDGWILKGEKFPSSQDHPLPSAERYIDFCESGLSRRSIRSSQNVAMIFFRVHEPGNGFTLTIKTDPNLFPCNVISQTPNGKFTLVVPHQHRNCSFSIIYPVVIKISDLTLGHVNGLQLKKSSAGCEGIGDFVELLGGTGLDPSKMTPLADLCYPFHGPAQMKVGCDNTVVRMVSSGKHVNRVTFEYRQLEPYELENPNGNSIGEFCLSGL", "assay": "Dose Response confirmation of uHTS hits for small molecule antagonists of the CRF-binding protein and CRF-R2 receptor complex.", "assay_type": "functional", "settings": "read-out: IC50_Mean"}, "[11]": {"target": "T5, Corticotropin-releasing factor receptor 2/Corticotropin-releasing factor-binding protein", "assay": "activators of CRF receptor 2 with binding protein – uHTS hits, confirmation (AID 602473)", "assay_type": "functional", "settings": "read-out: EC50_Mean"}, "[12]": {"assay": "CRF-BP/CRF-R2 complex antagonists, dose response, cell-based, uHTS hits, 384-well (AID 651639)", "assay_type": "functional, Homo sapiens", "settings": "read-out: IC50_Mean"}, "[13]": {"target": "T6, Tyrosine-protein phosphatase non-receptor type 22 (Homo sapiens, UniProt Q9Y2R2)", "T6 sequence (Q9Y2R2 whole entry)": "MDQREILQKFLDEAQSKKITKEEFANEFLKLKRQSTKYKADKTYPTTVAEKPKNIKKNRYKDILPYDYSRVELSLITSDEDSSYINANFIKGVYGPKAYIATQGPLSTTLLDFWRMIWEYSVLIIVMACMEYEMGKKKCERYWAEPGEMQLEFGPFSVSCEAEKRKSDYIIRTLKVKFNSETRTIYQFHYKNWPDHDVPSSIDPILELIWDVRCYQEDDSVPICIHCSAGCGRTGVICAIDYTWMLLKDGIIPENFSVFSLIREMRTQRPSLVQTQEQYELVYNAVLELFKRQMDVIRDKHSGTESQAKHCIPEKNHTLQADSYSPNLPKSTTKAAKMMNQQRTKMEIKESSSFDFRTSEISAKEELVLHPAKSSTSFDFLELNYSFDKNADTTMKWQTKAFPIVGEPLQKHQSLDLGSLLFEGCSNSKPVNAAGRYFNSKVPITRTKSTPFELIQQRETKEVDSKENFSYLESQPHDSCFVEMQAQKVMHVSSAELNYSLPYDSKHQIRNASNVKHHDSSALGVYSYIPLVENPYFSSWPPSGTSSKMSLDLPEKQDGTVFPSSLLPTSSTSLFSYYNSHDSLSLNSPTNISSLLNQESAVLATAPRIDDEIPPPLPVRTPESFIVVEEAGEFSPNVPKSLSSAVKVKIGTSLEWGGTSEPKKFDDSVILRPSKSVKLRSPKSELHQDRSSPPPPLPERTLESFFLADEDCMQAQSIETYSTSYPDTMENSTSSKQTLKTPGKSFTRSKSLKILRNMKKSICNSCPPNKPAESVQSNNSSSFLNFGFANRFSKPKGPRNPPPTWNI", "assay": "PTPN22 phosphatase inhibition, dose response, selectivity assay for STEP inhibitor project, biochemical (AID 624241)", "assay_type": "functional"}, "Bcl-2-like protein 10": {"target": "T7, Bcl-2-like protein 10 (Homo sapiens, UniProt Q9HD36)", "T7 sequence (Q9HD36 whole entry)": "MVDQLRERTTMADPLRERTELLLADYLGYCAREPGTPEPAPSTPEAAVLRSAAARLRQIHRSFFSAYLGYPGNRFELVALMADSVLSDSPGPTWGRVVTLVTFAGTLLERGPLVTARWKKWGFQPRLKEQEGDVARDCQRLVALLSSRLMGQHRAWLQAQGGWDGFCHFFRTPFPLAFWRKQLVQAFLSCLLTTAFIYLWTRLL", "assay": "displacers of TR3 peptide from Bcl-B, primary screen, selectivity assay for Bfl-1 inhibitor project, biochemical, fluorescence polarization, FITC-TR3 peptide (AID 748);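 also: fluorescence polarization from a fluorescein-labelled TR3 peptide binding purified Bcl-B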"}, "[14]": {"target": "Dual specificity protein phosphatase 3 (Homo sapiens, UniProt P51452)", "sequence (P51452 whole entry)": "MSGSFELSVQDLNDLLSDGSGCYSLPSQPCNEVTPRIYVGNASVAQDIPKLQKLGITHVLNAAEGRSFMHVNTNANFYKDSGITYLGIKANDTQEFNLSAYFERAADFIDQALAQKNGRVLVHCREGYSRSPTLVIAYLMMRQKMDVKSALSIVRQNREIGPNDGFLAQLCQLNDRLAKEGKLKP", "assay": "VHR phosphatase inhibition, dose response, selectivity assay for STEP inhibitor project, biochemical (AID 602374)", "assay_type": "functional", "settings": "read-out: IC50_Mean"}, "[15]": {"target": "Tyrosine-protein phosphatase non-receptor type 5 (Homo sapiens, UniProt P54829)", "sequence (P54829 whole entry)": "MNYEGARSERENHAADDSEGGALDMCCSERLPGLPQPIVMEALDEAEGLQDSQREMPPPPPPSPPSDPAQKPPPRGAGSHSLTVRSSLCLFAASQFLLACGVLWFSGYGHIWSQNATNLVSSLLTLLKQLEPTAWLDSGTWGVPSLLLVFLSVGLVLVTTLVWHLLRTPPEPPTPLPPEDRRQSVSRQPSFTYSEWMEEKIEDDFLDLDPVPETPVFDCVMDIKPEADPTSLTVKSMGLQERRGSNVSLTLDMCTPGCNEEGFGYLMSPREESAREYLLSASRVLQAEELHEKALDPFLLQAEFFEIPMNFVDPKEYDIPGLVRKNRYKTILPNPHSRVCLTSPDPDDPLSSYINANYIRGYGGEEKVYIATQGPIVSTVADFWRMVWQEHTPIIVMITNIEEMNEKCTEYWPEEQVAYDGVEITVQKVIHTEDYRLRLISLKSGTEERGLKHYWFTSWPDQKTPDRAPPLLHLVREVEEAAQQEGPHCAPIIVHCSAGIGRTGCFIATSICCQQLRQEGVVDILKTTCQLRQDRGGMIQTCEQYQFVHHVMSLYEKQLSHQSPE", "assay": "STEP phosphatase inhibitors, confirmation, biochemical, fluorescence intensity, uHTS hits (AID 602372)", "assay_type": "functional", "settings": "read-out: IC50_Mean"}, "Estrogen receptor beta [16]": {"target": "T8, Estrogen receptor beta (Homo sapiens, UniProt Q92731)", "T8 sequence (Q92731 whole entry)": "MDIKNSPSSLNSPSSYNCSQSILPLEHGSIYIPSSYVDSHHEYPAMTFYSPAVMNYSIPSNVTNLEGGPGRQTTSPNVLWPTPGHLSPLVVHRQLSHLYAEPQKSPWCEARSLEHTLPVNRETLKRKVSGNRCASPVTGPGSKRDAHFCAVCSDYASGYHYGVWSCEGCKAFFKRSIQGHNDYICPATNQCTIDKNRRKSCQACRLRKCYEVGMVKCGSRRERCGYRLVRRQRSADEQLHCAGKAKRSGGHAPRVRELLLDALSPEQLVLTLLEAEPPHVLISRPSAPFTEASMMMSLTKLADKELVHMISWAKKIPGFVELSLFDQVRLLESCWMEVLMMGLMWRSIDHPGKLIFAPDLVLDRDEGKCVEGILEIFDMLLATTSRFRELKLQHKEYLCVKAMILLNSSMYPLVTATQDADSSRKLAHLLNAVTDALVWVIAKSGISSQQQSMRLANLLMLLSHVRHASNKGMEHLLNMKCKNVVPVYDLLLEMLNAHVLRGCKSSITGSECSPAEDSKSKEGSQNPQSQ"}, "[17]": {"target": "Tyrosine-protein phosphatase non-receptor type 11 (Homo sapiens, UniProt Q06124)", "sequence (Q06124 whole entry)": "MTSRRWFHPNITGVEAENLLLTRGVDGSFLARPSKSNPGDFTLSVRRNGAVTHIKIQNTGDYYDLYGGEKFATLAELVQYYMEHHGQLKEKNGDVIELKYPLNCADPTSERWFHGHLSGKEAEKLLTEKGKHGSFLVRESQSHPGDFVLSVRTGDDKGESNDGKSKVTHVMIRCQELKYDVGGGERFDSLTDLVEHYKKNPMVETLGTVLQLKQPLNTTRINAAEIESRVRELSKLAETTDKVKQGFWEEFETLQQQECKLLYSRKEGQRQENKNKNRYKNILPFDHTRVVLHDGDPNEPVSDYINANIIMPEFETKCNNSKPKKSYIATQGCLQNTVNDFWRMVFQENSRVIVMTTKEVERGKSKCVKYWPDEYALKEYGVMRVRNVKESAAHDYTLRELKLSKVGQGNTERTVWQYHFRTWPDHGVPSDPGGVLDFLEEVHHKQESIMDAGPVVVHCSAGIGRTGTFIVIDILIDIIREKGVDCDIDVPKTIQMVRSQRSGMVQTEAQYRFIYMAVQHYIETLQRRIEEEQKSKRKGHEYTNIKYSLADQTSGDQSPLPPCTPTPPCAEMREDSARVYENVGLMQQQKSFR", "assay": "SHP2 phosphatase inhibition, dose response, selectivity assay for STEP inhibitor project, biochemical (AID 602367)", "assay_type": "functional", "settings": "read-out: IC50_Mean"}, "Estrogen receptor": {"target": "Estrogen receptor (Homo sapiens, UniProt P03372)", "sequence (P03372 whole entry)": "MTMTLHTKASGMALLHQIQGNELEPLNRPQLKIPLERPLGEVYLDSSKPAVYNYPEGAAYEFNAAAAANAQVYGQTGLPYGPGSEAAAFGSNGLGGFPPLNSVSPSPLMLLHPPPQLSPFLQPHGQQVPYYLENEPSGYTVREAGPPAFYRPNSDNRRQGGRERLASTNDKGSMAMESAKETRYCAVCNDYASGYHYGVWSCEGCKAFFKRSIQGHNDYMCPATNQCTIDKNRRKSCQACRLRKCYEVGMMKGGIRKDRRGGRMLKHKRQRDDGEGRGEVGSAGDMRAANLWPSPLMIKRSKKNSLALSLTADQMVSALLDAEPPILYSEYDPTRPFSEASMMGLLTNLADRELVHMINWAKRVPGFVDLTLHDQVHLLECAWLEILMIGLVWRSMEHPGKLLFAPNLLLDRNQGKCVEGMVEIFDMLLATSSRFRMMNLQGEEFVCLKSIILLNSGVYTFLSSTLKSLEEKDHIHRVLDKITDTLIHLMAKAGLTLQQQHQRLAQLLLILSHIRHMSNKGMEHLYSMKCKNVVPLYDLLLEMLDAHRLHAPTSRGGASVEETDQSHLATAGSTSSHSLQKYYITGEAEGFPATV"}, "Estrogen receptor beta [18]": {"target": "T8, Estrogen receptor beta", "assay": "ERβ–SRC-3 coactivator interaction inhibitors, confirmation, orthogonal assay, biochemical, ELISA, streptavidin-HRP readout (AID 1060)"}}, "note": "Active and inactive are the calls of the source.", "data": [{"smiles": "Cc1cnc(NC(=O)Cc2ccc(Br)cc2)s1", "values": [{"measurement": "IC50", "setting": "[1]", "value": "1.15 µM (active)"}]}, {"smiles": "Cc1ccc(C(=O)NNC(=O)c2cc3cc4ccccc4nc3s2)cc1", "values": [{"measurement": "AC50", "setting": "Cytochrome P450 3A4", "value": "4.47 µM (inconclusive)"}, {"measurement": "IC50", "setting": "[2]", "value": "12.8 µM (active)"}, {"measurement": "IC50", "setting": "[3]", "value": "52.9 µM (inactive)"}, {"measurement": "IC50", "setting": "[4]", "value": "12.1 µM (active)"}, {"measurement": "IC50", "setting": "[5]", "value": "4.33 µM (active)"}, {"measurement": "AC50", "setting": "Cytochrome P450 2C19", "value": "39.8 µM (inconclusive)"}, {"measurement": "IC50", "setting": "[6]", "value": "27.3 µM (active)"}]}, {"smiles": "CC1=CC2=NC(=O)/C(=C\\c3ccc(-c4ccc(Cl)cc4)o3)C(=N)N2O1", "values": [{"measurement": "IC50", "setting": "[7]", "value": "3.41 µM (active)"}]}, {"smiles": "COc1ccc(-c2[nH]nc3c2CN(C(=O)c2ccc(OC)c(OC)c2)CC3)cc1", "values": [{"measurement": "AC50", "setting": "[8]", "value": "0.912 µM (active)"}, {"measurement": "AC50", "setting": "[9]", "value": "25.6 µM (active)"}]}, {"smiles": "COc1ccccc1-c1c(C)nn2c(N3CCN(c4ccccc4OC)CC3)cc(C)nc12", "values": [{"measurement": "IC50", "setting": "[10]", "value": "12.9 µM (active)"}, {"measurement": "EC50", "setting": "[11]", "value": "> 53 µM (inactive)"}, {"measurement": "IC50", "setting": "[12]", "value": "> 20 µM (inactive)"}]}, {"smiles": "Cc1ccc(S(=O)(=O)Cc2ccc(C(=O)O)o2)cc1", "values": [{"measurement": "IC50", "setting": "[13]", "value": "21.8 µM (inactive)"}, {"measurement": "IC50", "setting": "Bcl-2-like protein 10", "value": "16 µM (active)"}, {"measurement": "IC50", "setting": "[14]", "value": "1.03 µM (active)"}, {"measurement": "IC50", "setting": "[5]", "value": "3.66 µM (active)"}, {"measurement": "IC50", "setting": "[15]", "value": "23.4 µM (inactive)"}, {"measurement": "IC50", "setting": "Estrogen receptor beta [16]", "value": "5.22 µM (active)"}, {"measurement": "IC50", "setting": "[17]", "value": "0.776 µM (active)"}, {"measurement": "IC50", "setting": "Estrogen receptor", "value": "18.1 µM (active)"}, {"measurement": "IC50", "setting": "Estrogen receptor beta [18]", "value": "< 0.023 µM (not active)"}]}]}
